Test results published in ChEMBL document CHEMBL4041474, “Design, synthesis and pharmacological evaluation of 4,5-diarylisoxazols bearing amino acid residues within the 3-amido motif as potent heat shock protein 90 (Hsp90) inhibitors” (Eur J Med Chem, 2017).
The source made the active and inactive calls. The calls are words filed in the database; no cut-off is given here.

How the values were obtained:
[1] = target: Heat shock protein HSP 90-alpha (Homo sapiens, UniProt P07900); assay: Inhibition of fluorescein isothiocyanate labeled geldanamycin binding to recombinant Hsp90alpha (unknown origin) after 1 hr by fluorescence polarization assay
NCI-H3122 [2] = assay: Antiproliferative activity against human NCI-H3122 cells after 72 hrs by SRB assay; format: functional, cell-based; conditions: NCI-H3122, 72 h
A549 = assay: Antiproliferative activity against human A549 cells after 72 hrs by SRB assay; format: functional, cell-based; conditions: A549, 72 h
NCI-N87 = assay: Antiproliferative activity against human NCI-N87 cells after 72 hrs by SRB assay; format: functional, cell-based; conditions: NCI-N87, 72 h
[3] = target: T1, Heat shock protein HSP90 (Homo sapiens) (UniProt P07900+P08238); conditions: 11.1 to 100 nM
Description: Inhibition of Hsp90 in human NCI-H3122 cells assessed as upregulation of Hsp70 at 11.1 to 100 nM after 24 hrs by Western blot analysis

NCI-H460 = assay: Antiproliferative activity against human NCI-H460 cells after 72 hrs by SRB assay; format: functional, cell-based; conditions: NCI-H460, 72 h
HCT-116 = assay: Antiproliferative activity against human HCT116 cells after 72 hrs by SRB assay; format: functional, cell-based; conditions: HCT-116, 72 h
DU-145 = assay: Antiproliferative activity against human DU145 cells after 72 hrs by SRB assay; format: functional, cell-based; conditions: DU-145, 72 h
[4] = target: T1, Heat shock protein HSP90 (Homo sapiens); conditions: 11.1 to 100 nM; remark: listed apart in the source
Description: Inhibition of Hsp90 in human NCI-H3122 cells assessed as decrease in phosphorylation of AKT at Ser473 at 11.1 to 100 nM after 24 hrs by Western blot analysis

U-87 MG = assay: Antiproliferative activity against human U87MG cells after 72 hrs by SRB assay; format: functional, cell-based, U-87MG ATCC
MDA-MB-231 = assay: Antiproliferative activity against human MDA-MB-231 cells after 72 hrs by SRB assay; format: functional, cell-based; conditions: MDA-MB-231, 72 h
BT-474 = assay: Antiproliferative activity against human BT474 cells after 72 hrs by SRB assay; format: functional, cell-based; conditions: BT-474, 72 h
[5] = target: T1, Heat shock protein HSP90 (Homo sapiens); conditions: 100 nM
Description: Inhibition of Hsp90 in human NCI-H3122 cells assessed as degradation of EML4-ALK fusion protein at 100 nM after 24 hrs by Western blot analysis

[6] = target: T1, Heat shock protein HSP90 (Homo sapiens); conditions: 11.1 to 100 nM; remark: listed apart in the source
Description: Inhibition of Hsp90 in human NCI-H3122 cells assessed as decrease in phosphorylation of ERK1/2 at 11.1 to 100 nM after 24 hrs by Western blot analysis

NCI-H3122 [7] = assay: Potency index, ratio of AUY922 IC50 to compound IC50 for human NCI-H3122 cells; format: functional

Compound: COC(=O)[C@H](NC(=O)c1cnc(N2CCN(C(=O)c3noc(-c4cc(C(C)C)c(O)cc4O)c3-c3ccc(CN4CCOCC4)cc3)CC2)nc1)C(C)C
- IC50 [1]: 0.473 µM
- IC50 (NCI-H3122 [2]): 0.135 µM

Compound: COC(=O)[C@@H](Cc1ccccc1)NC(=O)[C@H](NC(=O)c1noc(-c2cc(C(C)C)c(O)cc2O)c1-c1ccc(CN2CCOCC2)cc1)C(C)C
- IC50 [1]: 0.397 µM
- IC50 (NCI-H3122 [2]): 0.079 µM

Compound: COC(=O)[C@@H](CC(C)C)NC(=O)c1noc(-c2cc(C(C)C)c(O)cc2O)c1-c1ccc(CN2CCOCC2)cc1
- IC50 [1]: 0.151 µM
- IC50 (NCI-H3122 [2]): 0.019 µM

Compound: COC(=O)[C@H](NC(=O)COCCOCCNC(=O)c1noc(-c2cc(C(C)C)c(O)cc2O)c1-c1ccc(CN2CCOCC2)cc1)C(C)C
- IC50 [1]: 0.154 µM
- IC50 (NCI-H3122 [2]): 0.09 µM

Compound: CC(C)c1cc(-c2onc(C(=O)N[C@@H](C(=O)N3CC(F)(F)C3)C(C)C)c2-c2ccc(CN3CCOCC3)cc2)c(O)cc1O
- IC50 [1]: 0.039 µM
- IC50 (NCI-H3122 [2]): 0.037 µM

Compound: COC(=O)[C@@H](Cc1ccccc1)NC(=O)c1noc(-c2cc(C(C)C)c(O)cc2O)c1-c1ccc(CN2CCOCC2)cc1
- IC50 [1]: 0.26 µM
- IC50 (NCI-H3122 [2]): 0.077 µM

Compound: COC(=O)[C@@H](CC1CCCCC1)NC(=O)c1noc(-c2cc(C(C)C)c(O)cc2O)c1-c1ccc(CN2CCOCC2)cc1
- IC50 [1]: 0.836 µM
- IC50 (NCI-H3122 [2]): > 10 µM

Compound: COC(=O)[C@H](NC(=O)[C@H](NC(=O)c1noc(-c2cc(C(C)C)c(O)cc2O)c1-c1ccc(CN2CCOCC2)cc1)C(C)C)C(C)C
- IC50 [1]: 0.206 µM
- IC50 (NCI-H3122 [2]): > 10 µM

Compound: CC(C)c1cc(-c2onc(C(=O)N[C@@H](C(=O)NC3(CO)CC3)C(C)C)c2-c2ccc(CN3CCOCC3)cc2)c(O)cc1O
- IC50 [1]: 0.106 µM
- IC50 (NCI-H3122 [2]): 0.081 µM

Compound: COC(=O)[C@H](NC(=O)COCCOCCOCCNC(=O)c1noc(-c2cc(C(C)C)c(O)cc2O)c1-c1ccc(CN2CCOCC2)cc1)C(C)C
- IC50 [1]: 0.014 µM
- IC50 (A549): 0.351 µM
- IC50 (NCI-H3122 [2]): 0.042 µM
- IC50 (NCI-N87): 0.564 µM
- inhibition [3]: Active
- IC50 (NCI-H460): 0.247 µM
- IC50 (HCT-116): 0.116 µM
- IC50 (DU-145): 0.239 µM
- inhibition [4]: Active
- IC50 (U-87 MG): 0.109 µM
- IC50 (MDA-MB-231): 0.13 µM
- IC50 (BT-474): 0.057 µM
- inhibition [5]: Active
- inhibition [6]: Active

Compound: COC(=O)[C@@H](Cc1ccccc1)NC(=O)c1cnc(N2CCC(CNC(=O)c3noc(-c4cc(C(C)C)c(O)cc4O)c3-c3ccc(CN4CCOCC4)cc3)CC2)nc1
- IC50 [1]: 0.749 µM
- IC50 (NCI-H3122 [2]): 1.13 µM

Compound: COC(=O)[C@@H](Cc1ccccc1)NC(=O)COCCOCCNC(=O)c1noc(-c2cc(C(C)C)c(O)cc2O)c1-c1ccc(CN2CCOCC2)cc1
- IC50 [1]: > 1 µM
- IC50 (NCI-H3122 [2]): 1.53 µM

Compound: COC(=O)[C@@H](Cc1ccccc1)NC(=O)COCCOCCOCCNC(=O)c1noc(-c2cc(C(C)C)c(O)cc2O)c1-c1ccc(CN2CCOCC2)cc1
- IC50 [1]: 0.122 µM
- IC50 (NCI-H3122 [2]): 0.04 µM

Compound: COC(=O)[C@@H](CO)NC(=O)c1noc(-c2cc(C(C)C)c(O)cc2O)c1-c1ccc(CN2CCOCC2)cc1
- IC50 [1]: 0.072 µM
- IC50 (NCI-H3122 [2]): 0.227 µM

Compound: COC(=O)[C@H](CCCCNC(=O)OCc1ccccc1)NC(=O)c1noc(-c2cc(C(C)C)c(O)cc2O)c1-c1ccc(CN2CCOCC2)cc1
- IC50 [1]: 0.514 µM
- IC50 (NCI-H3122 [2]): 4.47 µM

Compound: CCOC(=O)[C@H](NC(=O)c1noc(-c2cc(C(C)C)c(O)cc2O)c1-c1ccc(CN2CCOCC2)cc1)C(C)C
- IC50 [1]: 0.189 µM
- IC50 (NCI-H3122 [2]): 0.002 µM
- Ratio IC50 (NCI-H3122 [7]): 10

Compound: COC(=O)[C@H](NC(=O)c1noc(-c2cc(C(C)C)c(O)cc2O)c1-c1ccc(CN2CCOCC2)cc1)C(C)C
- IC50 [1]: 0.079 µM
- IC50 (NCI-H3122 [2]): 0.028 µM

Compound: COC(=O)[C@H](NC(=O)c1cnc(N2CCC(CNC(=O)c3noc(-c4cc(C(C)C)c(O)cc4O)c3-c3ccc(CN4CCOCC4)cc3)CC2)nc1)C(C)C
- IC50 [1]: 0.407 µM
- IC50 (NCI-H3122 [2]): 0.278 µM

Compound: COC(=O)[C@@H](CC(C)C)NC(=O)[C@H](NC(=O)c1noc(-c2cc(C(C)C)c(O)cc2O)c1-c1ccc(CN2CCOCC2)cc1)C(C)C
- IC50 [1]: 0.285 µM
- IC50 (NCI-H3122 [2]): > 10 µM

Compound: CC(C)c1cc(-c2onc(C(=O)N[C@@H](C(=O)NCCN3CCOCC3)C(C)C)c2-c2ccc(CN3CCOCC3)cc2)c(O)cc1O
- IC50 [1]: 0.206 µM
- IC50 (NCI-H3122 [2]): 0.139 µM

Compound: CC(C)c1cc(-c2onc(C(=O)N[C@@H](C(=O)N3CCN(C)CC3)C(C)C)c2-c2ccc(CN3CCOCC3)cc2)c(O)cc1O
- IC50 [1]: 0.429 µM
- IC50 (NCI-H3122 [2]): 0.149 µM

Compound: COC(=O)[C@@H](Cc1ccccc1)NC(=O)CCCCCNC(=O)c1noc(-c2cc(C(C)C)c(O)cc2O)c1-c1ccc(CN2CCOCC2)cc1
- IC50 [1]: 0.307 µM
- IC50 (NCI-H3122 [2]): 0.09 µM

Compound: COC(=O)[C@@H](Cc1c[nH]c2ccccc12)NC(=O)c1noc(-c2cc(C(C)C)c(O)cc2O)c1-c1ccc(CN2CCOCC2)cc1
- IC50 [1]: 0.368 µM
- IC50 (NCI-H3122 [2]): 0.149 µM

Compound: COC(=O)[C@H](NC(=O)[C@H](NC(=O)[C@H](NC(=O)[C@H](NC(=O)c1noc(-c2cc(C(C)C)c(O)cc2O)c1-c1ccc(CN2CCOCC2)cc1)C(C)C)C(C)C)C(C)C)C(C)C
- IC50 [1]: 0.528 µM
- IC50 (NCI-H3122 [2]): 0.638 µM

Compound: CCNC(=O)c1noc(-c2cc(C(C)C)c(O)cc2O)c1-c1ccc(CN2CCOCC2)cc1 [LUMINESPIB]
- IC50 (NCI-H3122 [2]): 0.014 µM

Compound: COC(=O)[C@H](NC(=O)CCCCCNC(=O)c1noc(-c2cc(C(C)C)c(O)cc2O)c1-c1ccc(CN2CCOCC2)cc1)C(C)C
- IC50 [1]: 0.098 µM
- IC50 (NCI-H3122 [2]): 0.065 µM

Compound: CCNC(=O)[C@H](NC(=O)c1noc(-c2cc(C(C)C)c(O)cc2O)c1-c1ccc(CN2CCOCC2)cc1)C(C)C
- IC50 [1]: 0.028 µM
- IC50 (NCI-H3122 [2]): 0.034 µM

Compound: CNC(=O)[C@H](NC(=O)c1noc(-c2cc(C(C)C)c(O)cc2O)c1-c1ccc(CN2CCOCC2)cc1)C(C)C
- IC50 [1]: 0.021 µM
- IC50 (NCI-H3122 [2]): 0.039 µM

Compound: CC(C)c1cc(-c2onc(C(=O)N[C@@H](C(=O)OC(C)(C)C)C(C)C)c2-c2ccc(CN3CCOCC3)cc2)c(O)cc1O
- IC50 [1]: 0.112 µM
- IC50 (NCI-H3122 [2]): < 0.001 µM

Compound: COC(=O)[C@H](NC(=O)[C@H](NC(=O)C(NC(=O)c1noc(-c2cc(C(C)C)c(O)cc2O)c1-c1ccc(CN2CCOCC2)cc1)C(C)C)C(C)C)C(C)C (single isomer, unassigned)
- IC50 [1]: 0.259 µM
- IC50 (NCI-H3122 [2]): 0.034 µM

Compound: COC(=O)[C@@H](Cc1ccccc1)NC(=O)c1cnc(N2CCN(C(=O)c3noc(-c4cc(C(C)C)c(O)cc4O)c3-c3ccc(CN4CCOCC4)cc3)CC2)nc1
- IC50 [1]: > 1 µM
- IC50 (NCI-H3122 [2]): 0.164 µM
